Measured values published in patent US8030335B2, “Use of liver X receptor agonists” (Laboratoires Fournier S.A., priority 2005, dated 2011).

What was measured:
Format in all cases: in vivo, rat
[1] = system: isolated pancreatic islets; test: Glucose-stimulated insulin secretion in pancreatic islets isolated from treated ZDF rats; conditions: islets of ZDF rats treated 10 mg/kg oral for 3 weeks
Method: Male ZDF fa/fa and ZDF fa+ rats were obtained from Genetic Models (Indianapolis, Ind.), at the age of 6 weeks and used in the experiments at 12 weeks of age, after 3 weeks of oral treatment with vehicle or GW3965 (10 mg/kg). Compounds were given once daily (at 17 h) via oral gavage. At the time of their use, the ZDF fa/fa rats weighed 310-350 g, whereas the age-matched ZDF fa+ rats weighed 245-285 g. ZDF fa+ and ZDF fa/fa animals had free access to diabetogenic chow (Purina 5008). Animals were housed 5 per cage in a temperature and humidity-controlled room with a 12/12-h light-dark cycle. Blood samples were taken 16 h after compound administration via the tail vein and measured on a Konelab 300 (Labsystem) clinical chemistry analyzer. Rat pancreatic islets were prepared by collagenase digestion and density gradient purification. The enzyme collagenase type XI (Sigma Chemical, St. Louis, Mo.) was used for digestion of the pancreas. After an overnight fast, animals were deeply anesthetized and killed. Then, the pancreatic duct was cannulated, and 20 ml of the digestion solution at 37° C. […] Insulin content was measured in the same islets after an overnight alcohol-acid extraction (Ethanol 75%+HCl 0.15 N). Insulin concentrations in the different media were determined by rat insulin ELISA test (Insulin Rat Elite plus, MERCODIA).

Glut2 mRNA = test: Real-time quantitative RT-PCR of Glut2 in isolated islets of treated ZDF rats; conditions: normalized to 18S rRNA, vehicle ZDF 0.27, fa+ 0.40±0.22
Method: Pancreatic and duodenal homeobox gene 1, Pdx1 (Genbank: NM_022852) and facilitated glucose transporter, member 2, Glut2 (Genbank: NM_012879) gene expression were measured by real time quantitative RT-PCR. Total RNAs from fresh isolated rat pancreatic islets were prepared using Rneasy 96 Kit according to the manufacturer's protocol (Qiagen, France), treated with Dnase I to remove contaminating DNA (Stratagene, France), and quantified using the iScript cDNA Synthesis and iQ SYBR Green Supermix kits (Biorad, france). Real-time quantitative RT-PCR was performed using the iCycler Detection System instrument and software (Bio-Rad). As the predicted size of the amplified cDNAs and the Tm values for the primers were similar, uniform amplification conditions were applied (ie. annealing at 60° C.). Specificity of amplified products was monitored by performing melting curves at the end of each amplification. Expression levels were quantified (total RNA units) by generating a six-point serial standard curve. RNA samples were normalized for comparison by determining 18S rRNA levels. In this example, the mRNA expression of PDX1 and Glut2 was determined. As previously described, PDX1 and Glut2 are markers of the regeneration of beta cells. […] PDX1 and Glut2 mRNA expression was increased in islets isolated from GW3965-compared to vehicle-treated ZDF rats. […]

pancreatic islets = test: Number of harvested pancreatic islets in treated ZDF rats; conditions: 10 mg/kg oral for 3 weeks, vehicle 51±13, fa+ 120±28, mean±SEM
Method: Male ZDF fa/fa and ZDF fa+ rats were obtained from Genetic Models (Indianapolis, Ind.), at the age of 6 weeks and used in the experiments at 12 weeks of age, after 3 weeks of oral treatment with vehicle or GW3965 (10 mg/kg). Compounds were given once daily (at 17 h) via oral gavage. At the time of their use, the ZDF fa/fa rats weighed 310-350 g, whereas the age-matched ZDF fa+ rats weighed 245-285 g. ZDF fa+ and ZDF fa/fa animals had free access to diabetogenic chow (Purina 5008). Animals were housed 5 per cage in a temperature and humidity-controlled room with a 12/12-h light-dark cycle. Blood samples were taken 16 h after compound administration via the tail vein and measured on a Konelab 300 (Labsystem) clinical chemistry analyzer. Rat pancreatic islets were prepared by collagenase digestion and density gradient purification. The enzyme collagenase type XI (Sigma Chemical, St. Louis, Mo.) was used for digestion of the pancreas. After an overnight fast, animals were deeply anesthetized and killed. Then, the pancreatic duct was cannulated, and 20 ml of the digestion solution at 37° C. (collagenase 30 mg/ml dissolved in 20 ml Hanks' balanced salt solution [HBSS]) (Sigma Chemical, St. Louis, Mo.) was slowly injected to distend the tissue. […]

With `O=C(O)Cc1cccc(OCCCN(Cc2cccc(C(F)(F)F)c2Cl)CC(c2ccccc2)c2ccccc2)c1` [GW3965] the “increase of insulin secretion vs vehicle-treated ZDF rat islets” value ([1]; 3.3 mmol/l glucose) was 133.8%, the “increase of insulin secretion vs vehicle-treated ZDF rat islets” value ([1]; 16.7 mmol/l glucose) was 74.5% and the “Glut2 mRNA expression” value (Glut2 mRNA) was 0.55±0.23. The “number of harvested pancreatic islets” value (pancreatic islets) was 80±16 islets/rat.
